Measured values: patent US12329755B2, “Bromodomain inhibitors to target therapy-resistant cancer” (University of Tennessee Research Foundation, priority 2019, dated 2025)
“Also recorded” adds a separate entry of the source.

Experiments:
[1] = system: LN229 TMZ-resistant glioma cell line; test: IncuCyte live cell imaging proliferation assay; type: cell-based; conditions: for sensitization to TMZ: BRI 1 μM combined with 100 μM TMZ; for effect on cell growth: BRI alone (1 μM)
Experimental: FIG. 2A is a graph showing relative growth of temozolomide (TMZ)-resistant glioma cells (LN229 cells) alone (control); after treatment with 100 micromolar (μM) TMZ; after treatment with a Brahma-related gene-1 bromodomain inhibitor (BRI), PFI-3 (1 μM); or after treatment with both TMZ and PFI-3 (combined).
FIG. 2B is a graph showing relative growth of temozolomide (TMZ)-resistant glioma cells (LN229 cells) alone (control); after treatment with 100 micromolar (μM) TMZ; after treatment with a Brahma-related gene-1 bromodomain inhibitor (BRI), IV-073 (1 μM); or after treatment with both TMZ and IV-073 (combined).
FIG. 2C is a graph showing relative growth of LN229 Temozolomide (TMZ)-resistant glioma cells alone (control); after treatment with 100 micromolar (μM) TMZ; after treatment with a Brahma-related gene-1 bromodomain inhibitor (BRI), IV-077 (1 μM); or after treatment with both TMZ and IV-077 (combined).
FIG. 2D is a graph showing relative growth of LN229 Temozolomide (TMZ)-resistant glioma cells alone (control); after treatment with 100 micromolar (μM) TMZ; after treatment with a Brahma-related gene-1 bromodomain inhibitor (BRI), IV-085 (1 μM); or after treatment with both TMZ and IV-085 (combined).
To determine whether PFI-3 (also called YH-IV-081) and its analogs (referred to herein as “PAs”) enhanced TMZ sensitivity IncuCyte live cell imaging proliferation assays (high throughput system) were performed with the LN229 TMZ-resistant glioma cell line.

GBM cells [2] = test: overall statements on GBM cell death and sensitization to TMZ; type: cell-based; conditions: for sensitizing activity to TMZ compared to PFI-3: in vitro and in an animal model of GBM; for GBM cell death: used alone
Excerpt: The syntheses of two exemplary PA BRIs, referred to herein as YH-IV-073 (or IV-073), and YH-IV-077 (or IV-077), as well as of PFI-3 (also referred to herein as YH-IV-081), are shown in Scheme 2, below. As shown in Scheme 2, commercially available tert-butyloxycarbonyl (BOC)-protected amine 1 is contacted with 2-bromopyridine (2) to form intermediate 3. The protecting group can be removed (e.g., via hydrolysis) to give the corresponding amine 4. Compound 4 can be coupled with a carboxylic acid (5, 6, or 7) to afford target YH-IV-073, YH-IV-077 and YH-IV-081, respectively. […] These analogs will provide greater insight into the importance of substitution of the A ring.
The synthetic route shown in Scheme 3, below, was used to synthesize new analogs with different substituents in the 2-position of the A-ring, such as YH-IV-085. As shown in Scheme 3, a commercially available 1-phenylprop-2-yn-1-one (e.g., 8 or 9) can be reacted with BOC-protected amine compound 1 to afford a BOC-protected intermediate (e.g., 10 or 11), which can be hydrolyzed to provide corresponding deprotected intermediate (12 or 13). The intermediates can be coupled with the 2-bromopyridine (2) to yield target compounds (e.g., 14 or YH-IV-085), respectively. YH-IV-085 is believed to be the first PFI-3 analog prepared without a 2-hydroxy moiety in the A-ring.

X10 BTICs = conditions: X10 BTICs; cited from earlier work
X16 BTICs = conditions: X16 BTICs; cited from earlier work
bromodomain of BRG1 = target: T1, bromodomain of BRG1 (Homo sapiens, UniProt P51532); test: thermal shift assay of the BRG1 bromodomain in MT330 GBM cells; type: binding; conditions: 44.5° C. to 55.6° C.; PFI-3 30 μM, IV-073 20 μM, two hours; compared to DMSO
T1 construct: The assay involved the use of the bromodomain of BRG1 in MT330 GBM cells; expressed in transfected cells; host or cells: MT330 GBM cells
Experimental: FIG. 3 is a series of immunoblot images showing the effects of Brahma-related gene-1 bromodomain inhibitors (BRIs) on the stability of the bromodomain of Brahma-related gene-1 in a thermal assay shift of the bromodomain in glioblastoma cells over a temperature range from 44.5 degrees Celsius (° C.) to 55.6° C. Cells were treated with (middle) PFI-3 (30 micromolar (μM)) for two hours or (right), a PFI-3 analog of the presently disclosed subject matter (IV-073) (20 μM) for two hours. For comparison, control cells treated with dimethyl sulfoxide (DMSO) are shown at […].
To further study the activity of the presently disclosed PFI-3 analogs, a thermal shift assay was employed. The assay involved the use of the bromodomain of BRG1 in MT330 GBM cells at temperatures ranging from 44.5° C. to 55.6° C.

X16 BTIC = X16 BTIC mouse flank xenografts; type: in vivo, mice; conditions: combined with TMZ; for tumor growth: 2 weeks post-treatment, compared with PFI-3 and TMZ, BRI 0.5 μg/mouse, TMZ 0.25 mg/mouse IP alternate days
Experimental: FIG. 1F is a graph showing the effect of temozolomide (TMZ) on the tumorigenicity of control (black portion of bars) and Brahma-related gene-1-knock-down (BRG1-KD) (grey portion of bars) brain-tumor initiating cells (BTICs) after injection of 10^6 tumor cells into the flanks of immunodeficient mice. Live animal imaging preformed at weekly intervals. After confirming tumor initiation by live animal imaging, mice were treated with TMZ by interperitoneal (IP) injection (10 milligrams per kilogram (mg/kg) on alternate days). The reduction in tumor volume was calculated at 1 week (left) and 2 weeks (right) post-treatment. *p≤0.05.
FIG. 5 is a graph showing the effect of Brahma-related gene-1 bromodomain inhibitors (BRIs), PFI-3 and the PFI-3 analogs (PAs) IV-073, IV-077, and IV-085, on the anticancer activity of temozolomide (TMZ) on brain-tumor initiating-cell (BTIC) tumor growth. BTICs (10^6 cells) from X16 glioblastoma were injected into the flanks of immunodeficient mice. After confirming tumor initiation by live animal imaging, mice were treated with PFI-3 or a PA (0.5 microgram per mouse (μg/mouse)) and TMZ (0.25 mg/mouse) by intrarperitoneal (IP) injection on alternate days. The reduction in tumor volume was calculated at 2 weeks post-treatment.
BRG1 loss sensitizes BTICs to TMZ in vitro and in vivo: Although the alkylating agent TMZ is front-line chemotherapy in the treatment of GBM, a significant clinical problem is intrinsic or adaptive resistance to TMZ.^63 To evaluate TMZ sensitivity, GBM6 or X16 BTICs were treated with 300 μM or 500 μM TMZ, and cell proliferation was determined. […] Since BRG1 has been implicated in DNA double-strand break repair,^65-67 it was hypothesized that BRG1 loss in BTICs would sensitize BTICs to TMZ. […] To determine whether BRG1-KD sensitized BTICs to TMZ in vivo, animal studies were conducted with control (scrambled shRNA) and BRG1-KD X16 BTICs injected into the flanks of NSG mice. After tumor initiation was confirmed by live animal imaging, mice were treated with TMZ. […] Thus, despite X16 BRG1-KD BTICs producing larger tumors, the tumors were sensitized to TMZ therapy.
In contrast, all mice with single drug treatment had to be euthanized because the tumors had reached […] by 3 weeks post-treatment.

[3] = target: T2, GFP-tagged bromodomain of BRG1 (GFP-BRG1 BRD) (Homo sapiens, UniProt P51532); test: nuclear localization of fluorescently tagged BRG1 bromodomain in MT330 GBM cells; type: cell-based; conditions: PFI-3 10 or 30 μM; IV-073 5, 10 or 30 μM; compared to DMSO
T2 construct: a fluorescently tagged bromodomain of BRG1 expressed in MT330 GBM cells; expressed in transfected cells; host or cells: MT330 GBM cells
Excerpt: FIG. 4 is a series of fluorescence microscopy images showing the effects of Brahma-related gene-1 bromodomain inhibitors (BRIs) on the nuclear localization of a green fluorescent protein (GFP)-tagged bromodomain of Brahma-related gene-1 (GFP-BRG1 BRD).
The effects of PFI-3 and its analogs on the nuclear localization of a fluorescently tagged bromodomain of BRG1 expressed in MT330 GBM cells was studied. In the control samples, the fluorescent bromodomain is localized to the nucleus. However, an inhibitor displaces it from the nucleus and the fluorescence signal markedly decreases because it is degraded in the cytoplasm.

GBM cells [4] = test: survival of mice after intracranial injection of GBM cells; type: in vivo; conditions: combination with TMZ, intraperitoneal, 10 mg/kg body weight
Experimental: FIG. 6 is a graph showing the survival curves (percent survival versus days after treatment) of mice after intracranial injection of glioblastoma (GBM) cells and intraperitoneal injection of temozolomide (TMZ) or combinations of TMZ and a Brahma-related gene-1 bromodomain inhibitors (BRIs): PFI-3 or one of the presently disclosed PFI-3 analogs (PAs) IV-073 or IV-085. Five mice per group were treated with TMZ with or without the BRI (10 milligrams per kilogram (mg/kg) body weight.
TMZ with or without a BRI was also tested in mice after intercranial injection of GBM cells.

T1 sequence (P51532 1453-1564 limits assumed): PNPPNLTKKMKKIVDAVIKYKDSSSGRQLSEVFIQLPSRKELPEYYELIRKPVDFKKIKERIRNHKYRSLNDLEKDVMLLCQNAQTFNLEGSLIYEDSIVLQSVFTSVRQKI
T2 sequence (P51532 1453-1564 limits assumed): as above

Compound	sensitization to TMZ [1]	effect on cell growth [1]	sensitizing activity to TMZ compared to PFI-3 (GBM cells [2])	GBM cell death (GBM cells [2])	Carmustine sensitivity (X10 BTICs)	Carmustine sensitivity (X16 BTICs)	stabilization of the BRG1 bromodomain (bromodomain of BRG1)	sensitizing activity to TMZ compared to PFI-3 (GBM cells [2]; listed as YH-IV-073)	tumor growth (X16 BTIC)	tumors after treatment for 8 weeks (X16 BTIC)	displacement of the BRG1 bromodomain from the nucleus [3]	animal survival (GBM cells [4])
O=C(/C=C/N1C[C@H]2C[C@@H]1CN2c1ccccn1)c1ccc(Cl)cc1O [IV-077, (E)-1-(4-chloro-2-hydroxyphenyl)-3-((1R,4R)-5-(pyridin-2-yl)-2,5-diazabicyclo[2.2.1]heptan-2-yl)prop-2-en-1-one]	potently sensitized	relatively minor effects on cell growth	significantly improved sensitizing activity	do not cause GBM cell death								
O=NN(CCCl)C(=O)NCCCl [Carmustine]					highly resistant	highly resistant						
O=C(/C=C/N1C[C@H]2C[C@@H]1CN2c1ccccn1)c1cc(F)ccc1O [IV-073, (E)-1-(5-fluoro-2-hydroxyphenyl)-3-((1R,4R)-5-(pyridin-2-yl)-2,5-diazabicyclo[2.2.1]heptan-2-yl)prop-2-en-1-one]	potently sensitized	relatively minor effects on cell growth		do not cause GBM cell death			more effective in stabilizing the bromodomain	significantly improved sensitizing activity; also recorded: better efficacy	marked effect on tumor growth	only small tumors were detectable	more effective in displacing the bromodomain	
O=C(/C=C/N1C[C@H]2C[C@@H]1CN2c1ccccn1)c1ccccc1Cl [IV-085, (E)-1-(2-chlorophenyl)-3-((1R,4R)-5-(pyridin-2-yl)-2,5-diazabicyclo [2.2.1]heptan-2-yl) prop-2-en-1-one]	potently sensitized	relatively minor effects on cell growth	significantly improved sensitizing activity	do not cause GBM cell death					marked effect on tumor growth	only small tumors were detectable		greatest effect
